Measured values reported in patent US20190038587A1, “DNA Methylation Landscapes of Post-Traumatic Stress Disorder (PTSD) Susceptibility and Resilience and Novel Therapeutics of PTSD Derived Thereof” (priority 2016, published 2019).

Assays:
long term potentiation = conditions: literature; cited from earlier work
[1] = tested on: susceptible rats (PTSD-like); experiment: Rat PTSD model (predator scent, incubation of fear): freezing behavior in open field after third reminder; assay type: in vivo, Sprague-Dawley rats
Experimental: Adult male Sprague-Dawley rats (250-270 gr; Harlan, Rehovot, Israel) were used and housed under conditions of constant temperature (22° C.) and 50% humidity, with a 12-h light-12-h dark cycle. The rats were allowed to habituate to the animal house for 7 days (acclimation). They were housed three per cage, two experimental rats together with a third companion rat. The same three rats remained together until the end of the study. Food and water were provided ad libitum. All experiments were performed between 08:00 and 14:00 in daylight. All animal procedures were approved by the Bar-Ilan University Animal Care Committee and were carried out in accordance with the NIH Guide for the Care and Use of Laboratory Animals.
The model used in this research is based on Kesner et al., 2009^32. This model consists of several stages encompassing […], detailed below and depicted in FIG. 1. The animals are analyzed according to three clinically-relevant clusters of symptoms: manifestation of freezing behavior when (a) situated alone in an open field paradigm (re-experiencing), (b) situated with a habituated companion (social interaction) and (c) after exposure to a hyperarousal event^33. The range of each measured behavioral procedure was determined for all animals after the base-line (week 3). The data collected at baseline was analyzed and the explore procedure was applied using SPSS 11 to define the range of the population. The upper and lower levels of this range were treated as ‘normal baseline’ and alterations from this range were used to define PTSD-like behavior (susceptible).
Each experimental or naive rat was habituated for 7 days to their home cage (the first week of the habituation). For the first stage of the experiment each experimental or naive rat was habituated for 7 days to an open field apparatus together with a companion rat from their home cage, 5 min per day for 7 days (the second week of the experiment). The open field apparatus was a 90×90×30 cm Plexiglas box, which was placed under a camera. The video and computer equipment were situated in a separate room where all video and observation analyses were performed.
After 14 days (Day 1) of habituation, baseline freezing levels of experimental and naive rats were measured prior to stress exposure. Behavioral parameters and measurements are described below (Behavioral Measurements section).
One week later (Day 7), experimental rats were exposed to stress, i.e. predator scent. Individual rats were placed for 30 min in a clean plastic cylinder (diameter: 30 cm, height: 33 cm) containing 125 ml of well-soiled cat litter, used by a cat during the 24 h prior to the experiment. After exposure to stress, each rat was transferred to the open field, and three behavioral parameters were measured (as described in the Behavioral Measurements section below). The cylinder was cleaned between testing of each rat. Temperature and humidity conditions in the stress exposure area were identical to those in the housing cages and open field. The companion rats were not exposed to stress, and were housed in separate cages in a separate housing area during all experiments. The same cat was used for the litter introduced during initial exposure.
One week later (Day 14), rats were re-exposed for 30 minutes to litter with the same texture, but without the cat scent. Behavioral parameters were subsequently tested (as described below).
Three weeks later (Day 35), rats were again exposed for 30 min to litter with the same texture and without cat scent. Behavioral parameters were subsequently tested (as described below). Behavioral data for this testing stage were analyzed according to the division criteria detailed below. Based on the obtained results, experimental rats were defined as either susceptible or resilient.
After exposure to cat litter, each rat was placed in the open field for measurement of PTSD-like behavior. […]

[2] = tested on: DNA methylation profile in the NAc; experiment: Capture bisulfite sequencing and DNA methylation mapping of nucleus accumbens after SAM treatment; assay type: in vivo, Sprague-Dawley rats
Experimental: (§1) Brains were removed immediately after exposure to litter with cat scent immediately after Re3. Each brain was placed in a Perspex brain matrix and sliced into 1.0 mm segments. The NAc was punched out using a micro dissecting needle of 13-14 G. Brain tissue was frozen at −70° C. until DNA and RNA extraction.
Genomic DNA was extracted using All Prep DNA/RNA Micro Kit, Qiagen (Hilden, Germany)
The SeqCap Epi Enrichment System was used for target bisulfite sequencing of promoters and enhancers in the rat genome. The rat (rn4) target probes were custom designed by utilizing H3K4me1 and H3K4me3 (indicating enhancers and promoters respectively) signals from mouse samples as there is no currently available ChIP data of H3K4me1 and H3K4me3 with respect to the rat species. PuttivH3K4me1 and me3 were selected by mapping and aligning genomic fragments from mouse to the rat and retaining any fragments that share a high similarity and the subsequent associated signals. A total of 53374 target probes have been designed spanning 48072248 base pairs of sequence with a mean probe size of 900 bp. Biotinylated target probes were designed for both strands of bisulfite converted genomic DNA. Bisulfite treated genomic DNA is ligated to methylated NGS adaptors, hybridized to the biotinylated oligonucleotide probes which is followed by a series of washes of off-target DNA sequences and unbound DNA. The resulting isolated specific DNA then undergoes PCR amplification for downstream sequencing on Illumina Hiseq 2000 sequencer. Capture and hybridization is performed as a service for fee by ICRM in Montreal licensed by Roche/Nimblegen. The following bioinformatics workflow is used in the lab. Quality control is done using FastQC to assess sequencing scores and other quality metrics. If necessary, trimming of raw file is performed using Trimmomatic to remove low scoring sequencing results and/or adapter contents. Sequences are aligned to rn4 rat reference genome using Bsmap v2.89. A typical alignment rate of 90%-95% is achieved (30× coverage). The resulting sequencing alignment file (SAM) is converted to binary alignment format (BAM) for downstream analysis and filtering. BAM files are split, merged, and sorted by strand for additional downstream filtering and analysis. Duplicate reads within the BAM files are removed via Picard Tools (v1.93, BROAD institute) strand-specifically and the separate BAM files are merged back together and examined by Bamtools to assess whether the sequences are properly mapped to genome, whether both paired end reads exist (for paired end sequencing), and whether paired end reads are properly paired to each other (for paired end sequencing). Using the final BAM file, methylation ratios and coverage is recovered by provided scripts within Bsmap as well as methylation context. Annotation of genomic locations is performed by HOMER. Computation of differential methylation sites and tiled windows of differentially methylated regions was performed using a logistic regression method with the Methylkit R package in Bioconductor1. FDR adjusted P value significance threshold is held at <0.2.
NAcs were isolated from the animals (n=4-7 per group) following the third reminder and DNA and RNA were extracted as described in the methods. DNA was bisulfite converted, enriched using capture arrays for all predicted promoters and enhancers in the rat genome and was then subjected to next generation sequencing. […]

RORA mRNA = RORA mRNA expression in nucleus accumbens following the third reminder; assay type: in vivo, Sprague-Dawley rats; conditions: NAc following Re3; SAM vs saline; FIG. 6C
Experimental: as §1
The retinoic biosynthesis and degradation pathway was also enriched with differentially methylated genes. In the susceptible group there was an enrichment in downstream targets of the RAR-Related Orphan Receptor A (RORA), however the impact on level of activity of this pathway could not be derived from this analysis (FIG. 6B). Therefore, the levels of RORA mRNA expression in the different groups was first determined. RORA mRNA expression levels were higher in either control or resilient animals treated with either saline or SAM than in susceptible animals (*p<0.05, *p<0.05 and **p<0.01 respectively) (FIG. 6C), consistent with the possibility that this gene is involved in the pathology of PTSD. […] Therefore, it was hypothesized that the RORA pathway is involved in the hyperarousal behavior which is resistant to SAM's treatment and characteristic of the susceptible PTSD group. The correlation between the mRNA expression of RORA and the three behavioral tests was first measured; as hypothesized, only the hyperarousal behavior was correlated with the mRNA expression of RORA (FIG. 6D). […]

[3] = tested on: Beta estradiol downstream pathway; experiment: Pathway analysis of upstream regulators of differentially methylated genes; design: species or system Sprague-Dawley rats; conditions: susceptible animals treated with SAM relative to susceptible treated with saline; FIG. 6B
Text: If DNA methylation plays a causal role in PTSD, comparative analysis of upstream regulators of genes whose DNA methylation is different in control, susceptible, resilient and SAM treated animals could reveal important putative new pathways and networks involved in PTSD molecular pathology that are candidates for therapeutic intervention (FIG. 6A). […] Other up-regulators of differentially methylated genes are presented in the Heatmap. These pathways are relevant to anxiety and memory pathways such as: sex hormones, glucocorticoid and different cytokines.
In reference to FIG. 6, “A” is coloring representing the p value of each group for the different “upstream-regulator” regulated pathways. Light blue represents low activation and dark blue represents high activation of the pathway. Grey represents pathways that didn't change. Yellow lines and boxes represent sex hormone dependent pathways, blue lines and boxes represent cytokine regulated pathways, pink lines and boxes represent glucocorticoids regulated pathways and green lines and boxes represent retinoic acid (vitamin A) regulated pathways. “B” is circular heat maps representing the different pathways that are influenced by a specific “upstream-upregulator” and are altered in PTSD susceptible and resistant animals. […]

[4] = susceptible-SAM vs susceptible-saline rats, threshold >10, Q value 0.2, FIG. 4A

Nc1ncn([C@H]2C[C@H](O)[C@@H](CO)O2)c(=O)n1 [5-aza-2-deoxycytidine]
effect on long term potentiation (long term potentiation): inhibited long term potentiation

C[S+](CC[C@H](N)C(=O)O)C[C@H]1O[C@@H](n2cnc3c(N)ncnc32)[C@H](O)[C@@H]1O (stereo partly drawn) [SAM, S-adenosylmethionine]
freezing behavior during the 'exploration' test ([1]; Embodiment 2, susceptible rats, SAM 25 mg/kg i.p. 24 h and 1 h before Re-3, vs susceptible-saline, FIG. 3A): significantly decreased | freezing behavior during the 'social interaction' test ([1]; Embodiment 2, susceptible rats, SAM 25 mg/kg i.p. 24 h and 1 h before Re-3, vs susceptible-saline, FIG. 3B): significantly decreased | freezing behavior during the 'hyperarousal' test ([1]; Embodiment 2, susceptible rats, SAM 25 mg/kg i.p. 24 h and 1 h before Re-3, vs susceptible-saline, FIG. 3C): no difference in freezing behavior | freezing behavior during the 'exploration' test ([1]; Embodiment 4, susceptible rats, SAM 25 mg/kg and/or retinoic acid 2 mg/kg i.p. 24 h and 1 h before Re-3, vs susceptible-RA and susceptible-saline, FIG. 7A): significantly decreased | freezing behavior during the 'social interaction' test ([1]; Embodiment 4, susceptible rats, SAM 25 mg/kg and/or retinoic acid 2 mg/kg i.p. 24 h and 1 h before Re-3, vs susceptible-RA and susceptible-saline, FIG. 7B): significantly decreased | fold change in freezing behavior in 'exploration' and 'social interaction' tests (from Re-2 to Re-3) ([1]; susceptible-treated rats, FIG. 3D-G): effective in reducing these behaviors | fold change in freezing behavior in the 'hyperarousal' test (from Re-2 to Re-3) ([1]; susceptible-treated rats, FIG. 3H-I): ineffective in changing freezing behavior | CGs sites differentially methylated in the susceptible animals and reversed by the SAM treatment ([2]; FIG. 4A-B): 140 CGs sites | CG sites differentially methylated in both the susceptible and the resilient rats affected by SAM ([2]; FIG. 4C-D): 38 CG sites | fraction of total susceptible sites reversed by SAM treatment ([2]; sites altered in susceptible rats relative to controls): 30% | CGs sites that were de-methylated [2, 4]: 599 CGs sites | CGs sites that were hyper-methylated [2, 4]: 363 CGs sites | level of expression of RORA (mRNA) (RORA mRNA): no effect | state of activity of Beta estradiol downstream pathway [3]: inhibited
